Publication PMC5893132, “Selective inhibition of histamine-evoked Ca^2+ signals by compartmentalized cAMP in human bronchial airway smooth muscle cells” (Cell Calcium, 2018)
Counter-ions that a name gives are not always drawn.

System: histamine-evoked Ca^2+ signals in hBASMCs
Test: Histamine-evoked Ca2+ signals in populations of fluo-4-loaded hBASMCs
Assay type: cell-based, human
Settings: HBSS
Procedure: Two methods were used to measure [Ca^2+]i in populations of hBASMCs. For measurements using a FlexStation III plate-reader (Molecular Devices, Sunnyvale, CA, USA), hBASMCs were seeded into 96-well plates (10^4 cells per well). After about 4 days, when the cells were confluent, the medium was replaced with SMGM-2 without serum or growth factor supplements, and the cells were used after a further 24 h. This period in serum-free medium increased by about 2-fold the amplitude of the increases in [Ca^2+]i evoked by histamine (results not shown). Cells were washed with HEPES-buffered saline (HBS: 135 mM NaCl, 5.9 mM KCl, 1.2 mM MgCl2, 1.5 mM CaCl2, 11.6 mM HEPES, 11.5 mM D-glucose, pH 7.3), and loaded with fluo-4 by incubation with fluo-4-AM (2 μM) in HBS (100 μL per well) containing pluronic F127 (0.02%, v/v) and probenecid (2.5 mM). After 1 h at 20 °C, the medium was replaced with HBS (100 μL per well) containing probenecid (2.5 mM). After a further incubation at 20 °C for 1 h, the medium was replaced with HBS (60–80 μL per well) or nominally Ca^2+-free HBS, and the cells were used immediately for experiments at 20 °C. In some experiments, BAPTA (2.5 mM) was added to HBS during the recording; this reduced the free [Ca^2+] of the HBS to ∼120 nM without affecting the pH. Drug additions (20 μL at 4 or 5 times the final concentration) were added automatically. Fluorescence from fluo-4 (excitation 485 nm, emission 525 nm) was recorded at 1.44-s intervals using Softmax Pro 5.4 (Molecular Devices). Fluorescence was calibrated to [Ca^2+]i from: [Ca^2+]i=KDCa×(F−Fmin/Fmax−F) where, KDCa is the equilibrium dissociation constant of fluo-4 for Ca^2+ (345 nM), F is the recorded fluorescence, and Fmin and Fmax are the fluorescence values recorded after addition of triton-X-100 (0.1%, v/v) with either BAPTA (10 mM, Fmin) or CaCl2 (10 mM, Fmax). Although treatment with triton-X-100 releases fluo-4 from cells into the medium, the fluo-4 fluorescence is captured with the same efficiency whether it is trapped within cells or dispersed within the small volume of the wells (unpublished observations). Fmax was determined for each well at the end of an experiment, and the average value was used for each column of 8 wells. Fmin was determined from parallel wells on each plate.
For measurements of [Ca^2+]i using an FDSS 7000 FLIPR (Hamamatsu), hBASMCs were seeded into 384-well plates (8000 cells per well) in 20 μL of SMGM-2 containing 5% serum. After 24 h, the medium was replaced with 15 μL of serum-free SMGM-2, and after a further 6 h the cells were loaded with Ca^2+ indicator by addition of FLIPR calcium 4 assay kit (Molecular Devices) supplemented with probenecid (2.5 mM). The exact composition of this ‘no-wash’ indicator kit is not disclosed by the manufacturer, but it contains fluo-4-AM and components that reduce background fluorescence. The manufacture’s stock solution was diluted 10-fold into HBSS containing BSA (0.1%, w/v) and HEPES (20 mM); 5 μL of this solution was then added to each well (containing 15 μL of serum-free SMGM-2). After 2 h at 37 °C in humidified air containing 5% CO2, the plate was used for experiments at 20 °C. Most additions (5 μL) were prepared in HBSS supplemented with HEPES (20 mM) and BSA (0.1%, w/v). For more prolonged incubations, drugs were diluted in the initial loading medium (to avoid changes in dye-loading during the ‘no wash’ protocol). Fluorescence signals (excitation at 480 nm, emission at 540 nm) were calibrated to [Ca^2+]i after measurement of Fmin and Fmax uniquely for each well, using a KDCa = 345 nM.
All concentration-effect relationships were determined by addition of different drug concentrations to individual wells in the same multi-well plate, rather than by sequential additions to the same well. […]

In the case of `CC(C)NC[C@H](O)c1ccc(O)c(O)c1` [isoproterenol, (−)-isoproterenol hydrochloride], the IC50 (Homo sapiens, added 5 min before histamine 10 μM, n = 4, read-out: pIC50 for inhibition of histamine-evoked Ca2+ signals (converted)) is reported as 8.13 nM and the “maximal amplitude of the peak increase in [Ca2+]i evoked by histamine after pre-treatment” value (after isoproterenol 10 μM, 5 min, n = 7, control 242 ± 15 nM) is reported as 168 ± 19 nM.
